# Where two headings read alike, the source gives them in different places.
# Tests used:
# [1] = biological target: α-glucosidase (yeast); settings: cited from earlier work; for Ki: literature values, read-out: Inhibition activity Ki, α-glucosidase (yeast)
# [2] = biological target: T1, α-glucosidase (rice) (Oryza sativa subsp. japonica, UniProt Q653V7); settings: cited from earlier work; for Ki: literature values, read-out: Inhibition activity Ki, α-glucosidase (rice)
# T1 construct: purchased Sigma
# T1 sequence (Q653V7 34-885): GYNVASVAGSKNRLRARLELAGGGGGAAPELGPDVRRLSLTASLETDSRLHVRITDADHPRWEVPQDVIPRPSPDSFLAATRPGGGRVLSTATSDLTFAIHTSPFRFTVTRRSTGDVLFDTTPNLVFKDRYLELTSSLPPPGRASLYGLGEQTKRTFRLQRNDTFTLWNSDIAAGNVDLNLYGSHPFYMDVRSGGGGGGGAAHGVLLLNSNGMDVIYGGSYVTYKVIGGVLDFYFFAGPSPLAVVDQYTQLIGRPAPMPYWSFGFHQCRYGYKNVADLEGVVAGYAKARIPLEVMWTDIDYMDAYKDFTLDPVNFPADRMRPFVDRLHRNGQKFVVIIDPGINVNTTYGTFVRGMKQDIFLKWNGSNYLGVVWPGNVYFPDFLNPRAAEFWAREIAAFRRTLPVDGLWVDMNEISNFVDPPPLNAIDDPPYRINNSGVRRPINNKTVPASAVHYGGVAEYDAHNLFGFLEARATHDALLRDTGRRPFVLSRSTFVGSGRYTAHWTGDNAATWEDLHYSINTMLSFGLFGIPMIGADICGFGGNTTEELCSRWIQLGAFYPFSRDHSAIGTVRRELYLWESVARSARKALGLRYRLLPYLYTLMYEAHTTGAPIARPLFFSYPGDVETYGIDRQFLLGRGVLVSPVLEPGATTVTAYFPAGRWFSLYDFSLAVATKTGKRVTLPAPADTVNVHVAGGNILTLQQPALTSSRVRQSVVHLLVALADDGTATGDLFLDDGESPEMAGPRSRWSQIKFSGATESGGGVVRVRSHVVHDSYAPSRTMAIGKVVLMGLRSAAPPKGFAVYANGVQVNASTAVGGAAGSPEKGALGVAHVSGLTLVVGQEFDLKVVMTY
# [3] = biological target: β-glucosidase (almond); settings: cited from earlier work
# [4] = biological target: T1, α-glucosidase (rice); assay: Inhibition of rice α-glucosidase, maltose substrate, glucose oxidase/peroxidase coupled assay; assay type: biochemical
# Description: (§1) The inhibitory activity of 3 against a series of enzyme was tested. Enzymes were assayed according to standard procedures (Halvorson, H. O., Methods Enzymol. 8, 55 (1966)) by following the hydrolysis of nitrophenyl glycosides spectrophotometrically or by evaluating the reducing sugar formed in some glucosidase assays. The enzymes used were α-glucosidase (yeast and rice), β-glucosidase (almond), α-galactosidase (green coffee beans), β-galactosidase (E. coli) and α-mannosidase (jack beans).
# Inhibitory potency of 3 was determined by spectrophotometrically measuring the residual hydrolytic activities of the glycosidases against the corresponding nitrophenyl α- or β-D-glucopyranoside. The glycosidases used were α-glucosidase (yeast), α-glucosidase (rice), β-glucosidase (almond), α-galactosidase (green coffee beans), β-galactosidase (E. coli) and α-mannosidase (jack beans). All enzymes were purchased from Sigma. Each assay was performed in a phosphate or an acetate buffer at the optimal pH for each enzyme. […] The absorbance of the resulting mixture was determined at 400 nm (for p-nitrophenol).
# For rice α-glucosidase inhibition, maltose was used as the substrate, and the assay was based on the glucose oxidase/peroxidase enzyme procedure. […] The absorbance of the solution was determined at 500 nm for oxidized o-dianisidine. […] The absorbance of the solution was determined at 500 nm.
# [5] = biological target: T2, α-mannosidase (jack beans) (Canavalia ensiformis, UniProt C0HJB3); assay: Inhibition of jack bean α-mannosidase, nitrophenyl glycoside hydrolysis; assay type: biochemical
# T2 construct: purchased Sigma
# T2 sequence (C0HJB3 1-562 limits assumed): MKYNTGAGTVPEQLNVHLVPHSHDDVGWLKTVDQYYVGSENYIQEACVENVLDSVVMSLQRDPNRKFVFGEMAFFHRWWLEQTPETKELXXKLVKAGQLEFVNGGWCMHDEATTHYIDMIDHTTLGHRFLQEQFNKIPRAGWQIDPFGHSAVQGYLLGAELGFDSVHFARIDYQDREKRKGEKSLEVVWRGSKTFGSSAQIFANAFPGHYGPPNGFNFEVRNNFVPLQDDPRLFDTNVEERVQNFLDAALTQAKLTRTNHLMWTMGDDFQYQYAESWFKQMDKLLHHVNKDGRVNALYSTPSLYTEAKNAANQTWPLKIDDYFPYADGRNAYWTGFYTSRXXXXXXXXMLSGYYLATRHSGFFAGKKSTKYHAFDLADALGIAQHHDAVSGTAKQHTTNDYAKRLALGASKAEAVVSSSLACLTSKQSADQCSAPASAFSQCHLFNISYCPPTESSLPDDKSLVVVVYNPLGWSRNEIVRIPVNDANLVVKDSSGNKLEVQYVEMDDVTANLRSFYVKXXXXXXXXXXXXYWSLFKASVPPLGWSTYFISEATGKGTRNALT
# T2 sequence (C0HJB3 563-981 limits assumed): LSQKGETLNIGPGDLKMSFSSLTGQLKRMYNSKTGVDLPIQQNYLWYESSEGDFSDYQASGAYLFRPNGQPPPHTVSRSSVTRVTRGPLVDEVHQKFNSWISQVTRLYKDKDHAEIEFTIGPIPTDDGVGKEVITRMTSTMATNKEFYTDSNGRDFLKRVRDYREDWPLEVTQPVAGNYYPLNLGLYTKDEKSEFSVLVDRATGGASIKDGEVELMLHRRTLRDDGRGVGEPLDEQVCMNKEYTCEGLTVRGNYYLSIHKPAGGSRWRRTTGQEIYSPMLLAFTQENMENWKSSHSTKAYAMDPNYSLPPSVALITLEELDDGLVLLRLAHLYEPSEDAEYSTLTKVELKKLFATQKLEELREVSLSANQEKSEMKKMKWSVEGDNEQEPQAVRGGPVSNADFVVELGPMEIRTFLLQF
# Description: as §1
# (§2) Inhibitory potency of 3 was determined by spectrophotometrically measuring the residual hydrolytic activities of the glycosidases against the corresponding nitrophenyl α- or β-D-glucopyranoside. The glycosidases used were α-glucosidase (yeast), α-glucosidase (rice), β-glucosidase (almond), α-galactosidase (green coffee beans), β-galactosidase (E. coli) and α-mannosidase (jack beans). All enzymes were purchased from Sigma. Each assay was performed in a phosphate or an acetate buffer at the optimal pH for each enzyme. Inhibition studies (except rice α-glucosidase) were performed by adding the inhibitor to a final concentration of 0.05 mM to 11 mM to the respective buffer solutions along with enzyme. The solutions were incubated at 37° C. before adding substrates to the solutions. The absorbance of the resulting mixture was determined at 400 nm (for p-nitrophenol).
# [6] = biological target: T3, α-galactosidase (green coffee beans) (Coffea arabica, UniProt Q42656); assay: Inhibition of green coffee bean α-galactosidase, nitrophenyl glycoside hydrolysis; assay type: biochemical
# T3 construct: purchased Sigma
# T3 sequence (Q42656 16-378): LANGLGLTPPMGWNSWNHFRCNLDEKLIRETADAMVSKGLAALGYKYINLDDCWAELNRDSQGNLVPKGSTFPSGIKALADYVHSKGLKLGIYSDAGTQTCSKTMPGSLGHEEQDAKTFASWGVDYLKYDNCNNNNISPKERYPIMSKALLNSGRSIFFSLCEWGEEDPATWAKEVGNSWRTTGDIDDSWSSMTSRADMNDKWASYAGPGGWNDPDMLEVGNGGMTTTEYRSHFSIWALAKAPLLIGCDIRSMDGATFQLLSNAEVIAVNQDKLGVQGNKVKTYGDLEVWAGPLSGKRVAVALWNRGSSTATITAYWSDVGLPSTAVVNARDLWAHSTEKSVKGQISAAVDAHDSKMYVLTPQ
# Description: as §1, §2
# [7] = tested on: T4, α-glucosidase (yeast); assay: Inhibition of yeast α-glucosidase, hydrolysis of p-nitrophenylglucoside followed spectrophotometrically; assay type: biochemical
# T4 construct: other: p-nitrophenylglucoside substrate, 37° C
# Description: as §1, §2
# [8] = tested on: β-glucosidase (almond); assay: Inhibition of almond β-glucosidase, nitrophenyl glycoside hydrolysis; assay type: biochemical
# Description: as §1, §2
# [9] = biological target: T5, β-galactosidase (E. coli) (Escherichia coli, UniProt P00722); assay: Inhibition of E. coli β-galactosidase, nitrophenyl glycoside hydrolysis; assay type: biochemical
# T5 construct: purchased Sigma
# T5 sequence (P00722 2-1024): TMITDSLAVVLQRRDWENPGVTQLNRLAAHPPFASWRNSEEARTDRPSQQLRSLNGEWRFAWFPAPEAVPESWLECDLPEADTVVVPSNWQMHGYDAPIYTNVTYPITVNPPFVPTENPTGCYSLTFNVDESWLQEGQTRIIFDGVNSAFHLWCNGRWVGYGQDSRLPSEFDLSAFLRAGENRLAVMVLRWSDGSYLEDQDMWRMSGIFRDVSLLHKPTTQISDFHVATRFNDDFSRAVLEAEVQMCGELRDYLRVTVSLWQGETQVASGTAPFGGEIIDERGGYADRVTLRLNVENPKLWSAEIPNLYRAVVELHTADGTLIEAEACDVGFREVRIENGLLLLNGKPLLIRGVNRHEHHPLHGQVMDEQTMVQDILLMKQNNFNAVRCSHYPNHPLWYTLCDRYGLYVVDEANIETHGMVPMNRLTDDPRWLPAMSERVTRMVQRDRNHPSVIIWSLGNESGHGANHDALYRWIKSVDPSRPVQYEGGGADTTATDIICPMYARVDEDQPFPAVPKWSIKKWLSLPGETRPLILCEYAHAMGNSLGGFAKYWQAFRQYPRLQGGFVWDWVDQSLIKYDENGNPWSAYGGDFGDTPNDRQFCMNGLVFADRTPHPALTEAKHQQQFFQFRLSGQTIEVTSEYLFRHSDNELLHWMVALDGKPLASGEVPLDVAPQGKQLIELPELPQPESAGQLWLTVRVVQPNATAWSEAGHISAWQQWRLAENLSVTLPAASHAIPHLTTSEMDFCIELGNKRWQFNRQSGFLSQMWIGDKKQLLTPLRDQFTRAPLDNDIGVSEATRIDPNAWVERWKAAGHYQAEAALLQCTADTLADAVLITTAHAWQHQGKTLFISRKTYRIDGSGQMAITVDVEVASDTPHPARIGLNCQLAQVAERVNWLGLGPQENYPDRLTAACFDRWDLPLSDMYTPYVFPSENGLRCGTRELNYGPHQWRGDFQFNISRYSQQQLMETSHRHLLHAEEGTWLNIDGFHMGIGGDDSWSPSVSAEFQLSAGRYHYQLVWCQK
# Description: as §1, §2
# [10] = biological target: T3, α-galactosidase (green coffee beans); settings: literature values; n.i. = no inhibition observed; cited from earlier work
# [11] = biological target: T2, α-mannosidase (jack beans); settings: cited from earlier work
# [12] = tested on: β-glucosidase; settings: literature, enzyme source not stated; cited from earlier work
# [13] = literature values, n.i. = no inhibition observed
smiles,measurement,setting,value
"O[C@H]1[C@H](O)[C@@H](O)CN2CC[C@H](O)[C@H]12 [Compound 1, castanospermine]",Ki,[1],> 1500 µM
same,"Activity against yeast α-glucosidase, in words",[1]; literature,poor activity
same,Ki,[2],0.015 µM
same,"Activity against rice α-glucosidase, in words",[2]; literature,strongly inhibited
same,Ki,[3]; [13],1.5 µM
same,"Activity against almond β-glucosidase, in words",[3]; literature,inhibiting
"O[C@H]1[C@H](O)[C@@H](O)CN2CCSC[C@H]12 [Compound 3, 7(S),8(R),9(R),10(S)-Trihydroxy-2-thiaquinolizidine]","Type of inhibition, rice α-glucosidase",[4]; FIG. 6B,competitive inhibition
same,Ki,"[4]; maltose substrate, sodium acetate buffer pH 4.0, 37° C.",900 µM
same,"Inhibitory activity towards α-mannosidase (jack bean), in words",[5]; inhibitor 0.05 mM to 11 mM,No inhibitory activity
same,"Inhibition activity Ki, α-mannosidase (jack beans)",[5]; n.i. = no inhibition observed,n.i.^
same,"Inhibitory activity towards α-galactosidase (green coffee beans), in words",[6]; inhibitor 0.05 mM to 11 mM,No inhibitory activity
same,"Inhibition activity Ki, α-galactosidase (green coffee beans)",[6]; n.i. = no inhibition observed,n.i.^
same,"Type of inhibition, yeast α-glucosidase","[7]; double reciprocal plots, FIG. 6A",competitive inhibition
same,Ki,"[7]; p-nitrophenylglucoside substrate, 37° C.",330 µM
same,"Inhibitory activity towards β-glucosidase (almond), in words",[8]; inhibitor 0.05 mM to 11 mM,No inhibitory activity
same,"Inhibition activity Ki, β-glucosidase (almond)",[8]; n.i. = no inhibition observed,n.i.^b
same,"Inhibitory activity towards β-galactosidase (E-coli), in words",[9]; inhibitor 0.05 mM to 11 mM,No inhibitory activity
same,"Inhibition activity Ki, β-galactosidase (E. Coli)",[9]; n.i. = no inhibition observed,n.i.^
"OC[C@H]1NC[C@H](O)[C@@H](O)[C@@H]1O [compound 2, deoxynojirimycin]",Ki,[2],0.01 µM
O[C@@H]1[C@@H](O)[C@H](O)N2CCCC[C@H]2[C@H]1O [compound 10],"Inhibition activity Ki, α-galactosidase (green coffee beans)",[10],n.i.
same,"Inhibition activity Ki, β-glucosidase (almond)",[3]; [13],n.i.
O[C@H]1[C@H](O)[C@H](O)CN2CCC[C@H](O)[C@H]12 [compound 11],IC50,"[1]; literature value, read-out: Inhibition activity IC50, α-glucosidase (yeast)",> 2000 µM
same,IC50,"[3]; literature value, read-out: Inhibition activity IC50, β-glucosidase (almond)",> 2000 µM
same,IC50,"[11]; literature value, read-out: Inhibition activity IC50, α-mannosidase (jack beans)",> 2000 µM
same,"Inhibition of α-mannosidase, in words",[11]; literature,extremely poor inhibition
NC1=N[C@H](CO)[C@@H](O)[C@H](O)[C@H]1O [compound 12],Ki,[10],~10 µM
same,Ki,[1],~10 µM
same,Ki,[3]; [13],8 µM
CC1(C)O[C@H]2[C@H](O1)[C@@H](O)CSC[C@@H]2O [compound 13],"Activity against a β-glucosidase, in words",[12],inactive

# — US7342010B2, “2-thiaquinolizidines and process for the preparation thereof” (Board of Trustees of Michigan State University, priority 2004, dated 2008)
